Source: PMC7390954 (Frontiers in Microbiology, 2020)
In brackets after ≈: the same amount, converted by molar mass. Peptide text beside a SMILES is read from it.

Assays:
[1] = system: Pseudomonas aeruginosa UCBPP-PA14 wild-type
[2] = system: P. aeruginosa UCBPP-PA14 wild-type and tssK-2 mutant (1:1); type: cell-based, Pseudomonas aeruginosa
[3] = system: P. aeruginosa UCBPP-PA14 wild-type; type: cell-based, Pseudomonas aeruginosa; conditions: standard twofold dilution MIC in 96-well plates
[4] = system: P. aeruginosa; conditions: cited from earlier work

Row | Molecule | MIC, BM2 (H) ([1]; BM2 with high (2 mM) Mg2+, MIC = no growth after 10 h) [µg/mL] | MIC, BM2 (L) ([1]; BM2 with low (20 μM) Mg2+, 0.002% tween 80, 0.2% rhamnose, MIC = no growth after 10 h) [µg/mL] | Sub-MIC (L) ([1]; BM2 with low (20 μM) Mg2+, concentration that slowed down growth by 30% compared to untreated control) [µg/mL] | fate of tssK-2 mutant in 1:1 mixture with wild-type [2] | MIC, Without Spermidine [3] | MIC, With 4 mM Spermidine ([3]; 4 mM spermidine) | MIC90 [4] [µg/mL]
1 | CC(C)CCCCC(=O)N[C@@H](CCN)C(=O)N[C@H](C(=O)N[C@@H](CCN)C(=O)N[C@H]1CCNC(=O)[C@H]([C@@H](C)O)NC(=O)[C@H](CCN)NC(=O)[C@H](CCN)NC(=O)[C@H](CC(C)C)NC(=O)[C@@H](Cc2ccccc2)NC(=O)[C@H](CCN)NC1=O)[C@@H](C)O [PMB, polymyxin B2] (HELM PEPTIDE1{[CC(C)CCCCC(=O)[*:2]].[Dab].T.[Dab].[Dab].[Dab].[dF].L.[Dab].[Dab].T}$PEPTIDE1,PEPTIDE1,5:R3-11:R2$$$V2.0) | 0.3 (≈ 0.252 µM) | 32 (≈ 26.9 µM) | 2 | out-competed | 50 | >100 | –
2 | murepavadin | – | – | – | – | – | – | 2
